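In this assay, cells in 96-well plates receive the compound at five concentrations for 48 hours. Endpoints are linearly interpolated between the surrounding concentrations. GI50 marks 50% less growth. TGI marks complete inhibition of growth.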
How the values were obtained:
Test in all cases: DTP human tumour cell line panel, 48 h
IGROV1 ovarian = test system: IGROV1 ovarian
SK-MEL-2 melanoma = test system: SK-MEL-2 melanoma
HOP-62 NSCLC = test system: HOP-62 NSCLC
KM12 colon = test system: KM12 colon
HL-60(TB) leukemia = test system: HL-60(TB) leukemia
CAKI-1 renal = test system: CAKI-1 renal
MALME-3M melanoma = test system: MALME-3M melanoma
SF-539 CNS = test system: SF-539 CNS
DU-145 prostate = test system: DU-145 prostate
ACHN renal = test system: ACHN renal
NCI-H226 lung = test system: NCI-H226 lung
SK-OV-3 ovarian = test system: SK-OV-3 ovarian
HS 578T breast = test system: HS 578T breast
A549 NSCLC = test system: A549 NSCLC
SK-MEL-28 melanoma = test system: SK-MEL-28 melanoma
HOP-92 NSCLC = test system: HOP-92 NSCLC
OVCAR-5 ovarian = test system: OVCAR-5 ovarian
MDA-MB-231 breast = test system: MDA-MB-231 breast
U251 CNS = test system: U251 CNS
K-562 leukemia = test system: K-562 leukemia
UACC-62 melanoma = test system: UACC-62 melanoma
SR leukemia = test system: SR leukemia
SN12C renal = test system: SN12C renal
MDA-MB-435 = test system: MDA-MB-435
RPMI-8226 leukemia = test system: RPMI-8226 leukemia
UACC-257 melanoma = test system: UACC-257 melanoma
M14 melanoma = test system: M14 melanoma
T-47D breast = test system: T-47D breast
COLO 205 colon = test system: COLO 205 colon
A498 renal = test system: A498 renal
SF-295 CNS = test system: SF-295 CNS
BT-549 breast = test system: BT-549 breast
SNB-75 CNS = test system: SNB-75 CNS
NCI-H460 lung = test system: NCI-H460 lung
SW-620 colon = test system: SW-620 colon
SK-MEL-5 melanoma = test system: SK-MEL-5 melanoma
MCF7 breast = test system: MCF7 breast
LOX IMVI melanoma = test system: LOX IMVI melanoma
PC-3 prostate = test system: PC-3 prostate
OVCAR-3 ovarian = test system: OVCAR-3 ovarian
MOLT-4 leukemia = test system: MOLT-4 leukemia
NCI/ADR-RES ovarian = test system: NCI/ADR-RES ovarian
TK-10 renal = test system: TK-10 renal
NCI-H522 lung = test system: NCI-H522 lung
UO-31 renal = test system: UO-31 renal
HT29 colon = test system: HT29 colon
OVCAR-4 ovarian = test system: OVCAR-4 ovarian
HCC-2998 colon = test system: HCC-2998 colon
RXF 393 renal = test system: RXF 393 renal
HCT-15 colon = test system: HCT-15 colon

COc1cc(/C=N/Nc2ccnc3cc(Cl)ccc23)cc(OC)c1O
GI50 (IGROV1 ovarian): 1.85 µM | TGI (IGROV1 ovarian): 3.63 µM | GI50 (SK-MEL-2 melanoma): 16.3 µM | TGI (SK-MEL-2 melanoma): 32.8 µM | GI50 (HOP-62 NSCLC): 1.69 µM | TGI (HOP-62 NSCLC): 3.13 µM | GI50 (KM12 colon): 2.39 µM | TGI (KM12 colon): 6.05 µM | GI50 (HL-60(TB) leukemia): 1.89 µM | TGI (HL-60(TB) leukemia): 3.86 µM | GI50 (CAKI-1 renal): 1.66 µM | TGI (CAKI-1 renal): 3.02 µM | GI50 (MALME-3M melanoma): 1.87 µM | TGI (MALME-3M melanoma): 3.44 µM | GI50 (SF-539 CNS): 1.75 µM | TGI (SF-539 CNS): 3.16 µM | GI50 (DU-145 prostate): 1.9 µM | TGI (DU-145 prostate): 3.61 µM | GI50 (ACHN renal): 1.83 µM | TGI (ACHN renal): 3.23 µM | GI50 (NCI-H226 lung): 1.79 µM | TGI (NCI-H226 lung): 3.67 µM | GI50 (SK-OV-3 ovarian): 1.72 µM | TGI (SK-OV-3 ovarian): 3.14 µM | GI50 (HS 578T breast): 2.03 µM | TGI (HS 578T breast): 4.44 µM | GI50 (A549 NSCLC): 1.74 µM | TGI (A549 NSCLC): 3.21 µM | GI50 (SK-MEL-28 melanoma): 1.79 µM | TGI (SK-MEL-28 melanoma): 3.21 µM | GI50 (HOP-92 NSCLC): 1.44 µM | TGI (HOP-92 NSCLC): 2.89 µM | GI50 (OVCAR-5 ovarian): 1.67 µM | TGI (OVCAR-5 ovarian): 3.08 µM | GI50 (MDA-MB-231 breast): 2.05 µM | TGI (MDA-MB-231 breast): 4.05 µM | GI50 (U251 CNS): 1.81 µM | TGI (U251 CNS): 3.26 µM | GI50 (K-562 leukemia): 1.63 µM | TGI (K-562 leukemia): 3.46 µM | GI50 (UACC-62 melanoma): 1.71 µM | TGI (UACC-62 melanoma): 3.25 µM | GI50 (SR leukemia): 1.9 µM | TGI (SR leukemia): 4.72 µM | GI50 (SN12C renal): 1.8 µM | TGI (SN12C renal): 3.56 µM | GI50 (MDA-MB-435): 1.69 µM | TGI (MDA-MB-435): 3.07 µM | GI50 (RPMI-8226 leukemia): 2.18 µM | TGI (RPMI-8226 leukemia): 4.78 µM | GI50 (UACC-257 melanoma): 1.77 µM | TGI (UACC-257 melanoma): 3.3 µM | GI50 (M14 melanoma): 1.76 µM | TGI (M14 melanoma): 3.22 µM | GI50 (T-47D breast): 1.8 µM | TGI (T-47D breast): 3.9 µM | GI50 (COLO 205 colon): 1.86 µM | TGI (COLO 205 colon): 3.42 µM | GI50 (A498 renal): 18.9 µM | TGI (A498 renal): 38.5 µM | GI50 (SF-295 CNS): 1.79 µM | TGI (SF-295 CNS): 3.32 µM | GI50 (BT-549 breast): 1.75 µM | TGI (BT-549 breast): 3.27 µM | GI50 (SNB-75 CNS): 1.67 µM | TGI (SNB-75 CNS): 3.08 µM | GI50 (NCI-H460 lung): 2.05 µM | TGI (NCI-H460 lung): 3.73 µM | GI50 (SW-620 colon): 1.69 µM | TGI (SW-620 colon): 3.66 µM | GI50 (SK-MEL-5 melanoma): 1.77 µM | TGI (SK-MEL-5 melanoma): 3.17 µM | GI50 (MCF7 breast): 1.58 µM | TGI (MCF7 breast): 3.37 µM | GI50 (LOX IMVI melanoma): 2.15 µM | TGI (LOX IMVI melanoma): 3.65 µM | GI50 (PC-3 prostate): 1.66 µM | TGI (PC-3 prostate): 3.18 µM | GI50 (OVCAR-3 ovarian): 2.41 µM | TGI (OVCAR-3 ovarian): 5.47 µM | GI50 (MOLT-4 leukemia): 2.36 µM | TGI (MOLT-4 leukemia): 5.71 µM | GI50 (NCI/ADR-RES ovarian): 2.13 µM | TGI (NCI/ADR-RES ovarian): 4.51 µM | GI50 (TK-10 renal): 1.81 µM | TGI (TK-10 renal): 3.25 µM | GI50 (NCI-H522 lung): 1.66 µM | TGI (NCI-H522 lung): 3.2 µM | GI50 (UO-31 renal): 1.69 µM | TGI (UO-31 renal): 3.12 µM | GI50 (HT29 colon): 1.81 µM | TGI (HT29 colon): 3.34 µM | GI50 (OVCAR-4 ovarian): 1.85 µM | TGI (OVCAR-4 ovarian): 3.63 µM | GI50 (HCC-2998 colon): 1.73 µM | TGI (HCC-2998 colon): 3.23 µM | GI50 (RXF 393 renal): 1.75 µM | TGI (RXF 393 renal): 3.31 µM | GI50 (HCT-15 colon): 1.78 µM | TGI (HCT-15 colon): 3.43 µM
